Results as given in ChEMBL document CHEMBL1138714, “Isosteric N-arylpiperazine replacements in a series of dihydropyridine NPY1 receptor antagonists” (Bioorg Med Chem Lett, 2004).
pIC50, pKi: −log10 of the molar value.

What was measured:
[1] = molecular target: T1, Neuropeptide Y receptor type 1 (Homo sapiens, UniProt P25929); experiment: Inhibition of binding of [125I]PYY to membranes of SK-N-MC cells expressing the human Y1 receptors; type: cell membranes
T1 sequence (P25929 whole entry): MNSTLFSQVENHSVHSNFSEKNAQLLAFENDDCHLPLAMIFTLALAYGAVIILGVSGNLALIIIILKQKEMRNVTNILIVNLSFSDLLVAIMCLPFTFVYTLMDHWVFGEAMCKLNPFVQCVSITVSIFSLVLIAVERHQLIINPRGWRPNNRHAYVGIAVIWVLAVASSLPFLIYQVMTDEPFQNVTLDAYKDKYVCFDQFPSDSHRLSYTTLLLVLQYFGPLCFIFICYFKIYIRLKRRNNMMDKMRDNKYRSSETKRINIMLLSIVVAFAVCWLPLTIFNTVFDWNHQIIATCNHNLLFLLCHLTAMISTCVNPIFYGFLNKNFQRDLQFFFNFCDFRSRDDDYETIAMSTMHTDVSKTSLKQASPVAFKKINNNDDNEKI

[2] = molecular target: T1, Neuropeptide Y receptor type 1; experiment: Antagonist activity towards Neuropeptide Y receptor type 1; type: functional
[3] = Tested for inhibition of the forskolin-stimulated cAMP production; type: functional

SMILES: COC(=O)C1=C(C)N=C(C)/C(=C(/O)OC)C1c1cccc(N/C(=N/CCNC2CCN(c3ccccc3C)CC2)NC#N)c1 (stereo unspecified)
- pIC50 [1]: 8.40

SMILES: COC(=O)C1=C(C)N=C(C)/C(=C(/O)OC)C1c1cccc(N/C(=N/CCNC2CCN(c3ccccc3O)CC2)NC#N)c1 (stereo unspecified)
- pIC50 [1]: 8.30

SMILES: COC(=O)C1=C(C)N=C(C)/C(=C(/O)OC)C1c1cccc(N/C(=N/CCNC2CCN(c3ccccc3SC)CC2)NC#N)c1 (stereo unspecified)
- pIC50 [1]: 8.52

SMILES: COC(=O)C1=C(C)N=C(C)/C(=C(/O)OC)C1c1cccc(NC(=O)NCCNC2CCN(c3ccccc3O)CC2)c1 (stereo unspecified)
- pIC50 [1]: 8.22

SMILES: COC(=O)C1=C(C)N=C(C)/C(=C(/O)OC)C1c1cccc(NC(=O)NCCCN2CCN(c3ccccc3OC)CC2)c1 (stereo unspecified)
- pIC50 [1]: 7.92

SMILES: COC(=O)C1=C(C)N=C(C)/C(=C(/O)OC)C1c1cccc(N/C(=N/CCNC2CCN(c3ccccc3OC(F)(F)F)CC2)NC#N)c1 (stereo unspecified)
- pIC50 [1]: 7.55

SMILES: COC(=O)C1=C(C)N=C(C)/C(=C(/O)OC)C1c1cccc(NC(=O)NCCNC2CCN(c3cccc(Cl)c3)CC2)c1 (stereo unspecified)
- pIC50 [1]: 8.10

SMILES: COC(=O)C1=C(C)N=C(C)/C(=C(/O)OC)C1c1cccc(N/C(=N/CCCN2CCN(c3cccc(OC)c3)CC2)NC#N)c1 (stereo unspecified)
- pIC50 [1]: 7.41

SMILES: COC(=O)C1=C(C)N=C(C)/C(=C(/O)OC)C1c1cccc(NC(=O)NCCNC2CCN(c3ccccc3SC)CC2)c1 (stereo unspecified)
- pIC50 [1]: 8.30

SMILES: COC(=O)C1=C(C)N=C(C)/C(=C(/O)OC)C1c1cccc(N/C(=N/CCNC2CCN(c3ccccc3)CC2)NC#N)c1 (stereo unspecified)
- pIC50 [1]: 8.00

SMILES: COC(=O)C1=C(C)N=C(C)/C(=C(/O)OC)C1c1cccc(NC(=O)NCCNC2CCN(c3ccccc3[N+](=O)[O-])CC2)c1 (stereo unspecified)
- pIC50 [1]: 8.70

SMILES: COC(=O)C1=C(C)N=C(C)/C(=C(/O)OC)C1c1cccc(N/C(=N/CCNC2CCN(c3ccccc3[N+](=O)[O-])CC2)NC#N)c1 (stereo unspecified)
- pIC50 [1]: 8.40

SMILES: COC(=O)C1=C(C)N=C(C)/C(=C(/O)OC)C1c1cccc(NC(=O)NCCNC2CCN(c3ccccc3C(F)(F)F)CC2)c1 (stereo unspecified)
- pIC50 [1]: 7.51

SMILES: COC(=O)C1=C(C)N=C(C)/C(=C(/O)OC)C1c1cccc(N/C(=N/CCNC2CCN(c3ccccc3OC)CC2)NC#N)c1 (stereo unspecified)
- pIC50 [1]: 8.40
- pKi [2]: 8.44
- Kb [3]: 9.4 nM

SMILES: COC(=O)C1=C(C)N=C(C)/C(=C(/O)OC)C1c1cccc(NC(=O)NCCNC2CCN(c3ccccc3OC(F)(F)F)CC2)c1 (stereo unspecified)
- pIC50 [1]: 7.60

SMILES: COC(=O)C1=C(C)N=C(C)/C(=C(/O)OC)C1c1cccc(NC(=O)NCCNC2CCN(c3ccccc3C)CC2)c1 (stereo unspecified)
- pIC50 [1]: 8.40

SMILES: COC(=O)C1=C(C)N=C(C)/C(=C(/O)OC)C1c1cccc(N/C(=N/CCNC2CCN(c3ccccc3C(F)(F)F)CC2)NC#N)c1 (stereo unspecified)
- pIC50 [1]: 7.85

SMILES: COC(=O)C1=C(C)N=C(C)/C(=C(/O)OC)C1c1cccc(NC(=O)NCCNC2CCN(c3ccccc3)CC2)c1 (stereo unspecified)
- pIC50 [1]: 8.70

SMILES: COC(=O)C1=C(C)N=C(C)/C(=C(/O)OC)C1c1cccc(NC(=O)NCCNC2CCN(c3ccccc3OC)CC2)c1 (stereo unspecified)
- pIC50 [1]: 8.70
- pKi [2]: 8.72
- Kb [3]: 20 nM

SMILES: COC(=O)C1=C(C)N=C(C)/C(=C(/O)OC)C1c1cccc(NC(=O)NCCNC2CCN(c3ccccc3C#N)CC2)c1 (stereo unspecified)
- pIC50 [1]: 8.52

SMILES: COC(=O)C1=C(C)N=C(C)/C(=C(/O)OC)C1c1cccc(N/C(=N/CCNC2CCN(c3ccccc3C#N)CC2)NC#N)c1 (stereo unspecified)
- pIC50 [1]: 8.52

SMILES: COC(=O)C1=C(C)N=C(C)/C(=C(/O)OC)C1c1cccc(N/C(=N/CCNC2CCN(c3cccc(Cl)c3)CC2)NC#N)c1 (stereo unspecified)
- pIC50 [1]: 8.10
